Laboratory results from patent US6355799B1, “Substituted benzene compounds, process for their preparation, and herbicidal and defoliant compositions containing them” (ISK Americas Incorporated, priority 1997, dated 2002).

Assays:
Assay type in all cases: in vivo
[1] = test system: upland rice (Oryza sp., var. Tebonnet, RICE); test: Post-emerge test, crop safety; conditions: rating scale 0-100 (0 no damage, 100 complete death), 14 days after application
Method in brief: (§1)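 Rating: 0–100 visual injury, 14 DAA. Application: acetone, 187 l/ha, 15–1000 g ai/ha, flat-fan track sprayer with nozzle 40–45 cm above soil or canopy. Post-emerge runs used 0.25% v/v surfactant on 2–3 leaf plants.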

[2] = test system: field corn (Zea mays L., var. Dekalb 535, CORN); test: Post-emerge test, crop safety; conditions: rating scale 0-100 (0 no damage, 100 complete death), 14 days after application
Method in brief: as §1

[3] = test system: upland rice (Oryza sp., var. Tebonnet, RICE); test: Pre-emerge test, crop safety; conditions: rating scale 0-100, 14 days after application
Method in brief: (§2)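 Compounds in acetone were track-sprayed at 187 l/ha, 15–1000 g ai/ha, onto sandy loam pots. Pre-emerge seeds were sown one day before spraying, with surface watering afterwards. Post-emerge plants were at the 2–3 leaf stage and sprayed with 0.25% v/v non-ionic surfactant. Injury was rated 0–100 at 14 days.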

[4] = test system: field corn (Zea mays L., var. Dekalb 535, CORN); test: Pre-emerge test, crop safety; conditions: rating scale 0-100, 14 days after application
Method in brief: as §2

[5] = test system: large crabgrass (Digitaria sanguinalis, DIGSA); test: Post-emerge test, greenhouse herbicide activity screening; conditions: rating scale 0-100 (0 no damage, 100 complete death), 14 days after application
Method in brief: (§3)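 Sandy loam pots; pre-emerge: sown 1 d pre-spray, surface-watered after, then bottom-watered. Post-emerge: sown 8–21 d before, 2–3 leaf stage, + 0.25% v/v NIS, bottom-watered. Acetone, 187 l/ha track spray, 15–1000 g ai/ha. 0–100 injury score, day 14.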

[6] = test system: ivyleaf morningglory (Ipomoea hederacea, IPOHE); test: as above; conditions: rating scale 0-100 (0 no damage, 100 complete death), 14 days after application
Method in brief: as §3

[7] = test system: barnyardgrass (Echinochloa crus-galli, ECHCG); test: as above; conditions: rating scale 0-100 (0 no damage, 100 complete death), 14 days after application
Method in brief: as §3

[8] = test system: redroot pigweed (Amaranthus retroflexus, AMARE); test: as above; conditions: rating scale 0-100 (0 no damage, 100 complete death), 14 days after application
Method in brief: as §3

[9] = test system: johnsongrass (Sorghum halepense, SORHA); test: as above; conditions: rating scale 0-100 (0 no damage, 100 complete death), 14 days after application
Method in brief: as §3

[10] = test system: velvetleaf (Abutilon theophrasti, ABUTH); test: as above; conditions: rating scale 0-100 (0 no damage, 100 complete death), 14 days after application
Method in brief: as §3

[11] = test system: sicklepod (Cassia obtusifolia, CASOB); test: as above; conditions: rating scale 0-100 (0 no damage, 100 complete death), 14 days after application
Method in brief: as §3

[12] = test system: lambsquarters (Chenopodium album, CHEAL); test: as above; conditions: rating scale 0-100 (0 no damage, 100 complete death), 14 days after application
Method in brief: as §3

[13] = test system: green foxtail (Setaria viridis, SETVI); test: as above; conditions: rating scale 0-100 (0 no damage, 100 complete death), 14 days after application
Method in brief: as §3

[14] = test system: large crabgrass (Digitaria sanguinalis, DIGSA); test: Pre-emerge test, greenhouse herbicide activity screening; conditions: rating scale 0-100, 14 days after application
Method in brief: (§4)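 Compounds in acetone were track-sprayed at 15–1000 g ai/ha: pre-emergence onto soil sown the previous day, then top-watered to incorporate and later bottom-watered; post-emergence onto 2–3 leaf plants with 0.25% v/v surfactant, bottom-watered only. Ratings on a 0–100 phytotoxicity scale were taken at day 14.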

[15] = test system: ivyleaf morningglory (Ipomoea hederacea, IPOHE); test: as above; conditions: rating scale 0-100, 14 days after application
Method in brief: as §4

[16] = test system: barnyardgrass (Echinochloa crus-galli, ECHCG); test: as above; conditions: rating scale 0-100, 14 days after application
Method in brief: as §4

[17] = test system: common ragweed (Ambrosia artemisizfolia L., AMBEL); test: as above; conditions: rating scale 0-100, 14 days after application
Method in brief: as §4

[18] = test system: johnsongrass (Sorghum halepense, SORHA); test: as above; conditions: rating scale 0-100, 14 days after application
Method in brief: as §4

[19] = test system: velvetleaf (Abutilon theophrasti, ABUTH); test: as above; conditions: rating scale 0-100, 14 days after application
Method in brief: as §4

[20] = test system: sicklepod (Cassia obtusifolia, CASOB); test: as above; conditions: rating scale 0-100, 14 days after application
Method in brief: as §4

[21] = test system: lambsquarters (Chenopodium album, CHEAL); test: as above; conditions: rating scale 0-100, 14 days after application
Method in brief: as §4

[22] = test system: green foxtail (Setaria viridis, SETVI); test: as above; conditions: rating scale 0-100, 14 days after application
Method in brief: as §4

[23] = test system: redroot pigweed (Amaranthus retroflexus, AMARE); test: as above; conditions: rating scale 0-100, 14 days after application
Method in brief: as §2

COc1c(Cl)cc(F)c(-n2c(=O)cc(C(F)(F)F)n(C)c2=O)c1CC(C)(Cl)C(=O)OC(C(F)(F)F)C(F)(F)F (stereo not shown) [14-46]
Post-emerge phytotoxicity rating RICE (crop damage) ([1]; Rate 63 g ai/ha): 60
Post-emerge phytotoxicity rating RICE (crop damage) ([1]; Rate 250 g ai/ha): 100
Post-emerge phytotoxicity rating CORN (crop damage) ([2]; Rate 63 g ai/ha): 95
Post-emerge phytotoxicity rating CORN (crop damage) ([2]; Rate 250 g ai/ha): 100
Pre-emerge phytotoxicity rating, crop damage RICE ([3]; 63 g ai/ha): 0
Pre-emerge phytotoxicity rating, crop damage RICE ([3]; 250 g ai/ha): 30
Pre-emerge phytotoxicity rating, crop damage CORN ([4]; 63 g ai/ha): 0
Pre-emerge phytotoxicity rating, crop damage CORN ([4]; 250 g ai/ha): 0
Post-emerge Herbicidal Activity, phytotoxicity rating DIGSA ([5]; Rate 63 g ai/ha): 80
Post-emerge Herbicidal Activity, phytotoxicity rating DIGSA ([5]; Rate 250 g ai/ha): 100
Post-emerge Herbicidal Activity, phytotoxicity rating IPOHE ([6]; Rate 63 g ai/ha): 100
Post-emerge Herbicidal Activity, phytotoxicity rating IPOHE ([6]; Rate 250 g ai/ha): 100
Post-emerge Herbicidal Activity, phytotoxicity rating ECHCG ([7]; Rate 63 g ai/ha): 100
Post-emerge Herbicidal Activity, phytotoxicity rating ECHCG ([7]; Rate 250 g ai/ha): 100
Post-emerge Herbicidal Activity, phytotoxicity rating AMARE ([8]; Rate 63 g ai/ha): 95
Post-emerge Herbicidal Activity, phytotoxicity rating AMARE ([8]; Rate 250 g ai/ha): 100
Post-emerge Herbicidal Activity, phytotoxicity rating SORHA ([9]; Rate 63 g ai/ha): 80
Post-emerge Herbicidal Activity, phytotoxicity rating SORHA ([9]; Rate 250 g ai/ha): 90
Post-emerge Herbicidal Activity, phytotoxicity rating ABUTH ([10]; Rate 63 g ai/ha): 100
Post-emerge Herbicidal Activity, phytotoxicity rating ABUTH ([10]; Rate 250 g ai/ha): 100
Post-emerge Herbicidal Activity, phytotoxicity rating CASOB ([11]; Rate 63 g ai/ha): 60
Post-emerge Herbicidal Activity, phytotoxicity rating CASOB ([11]; Rate 250 g ai/ha): 90
Post-emerge Herbicidal Activity, phytotoxicity rating CHEAL ([12]; Rate 63 g ai/ha): 100
Post-emerge Herbicidal Activity, phytotoxicity rating CHEAL ([12]; Rate 250 g ai/ha): 100
Post-emerge Herbicidal Activity, phytotoxicity rating SETVI ([13]; Rate 63 g ai/ha): 90
Post-emerge Herbicidal Activity, phytotoxicity rating SETVI ([13]; Rate 250 g ai/ha): 100
Pre-emerge herbicidal activity, phytotoxicity rating DIGSA ([14]; 63 g ai/ha): 0
Pre-emerge herbicidal activity, phytotoxicity rating DIGSA ([14]; 250 g ai/ha): 0
Pre-emerge herbicidal activity, phytotoxicity rating IPOHE ([15]; 63 g ai/ha): 0
Pre-emerge herbicidal activity, phytotoxicity rating IPOHE ([15]; 250 g ai/ha): 0
Pre-emerge herbicidal activity, phytotoxicity rating ECHCG ([16]; 63 g ai/ha): 0
Pre-emerge herbicidal activity, phytotoxicity rating ECHCG ([16]; 250 g ai/ha): 0
Pre-emerge herbicidal activity, phytotoxicity rating AMBEL ([17]; 63 g ai/ha): 50
Pre-emerge herbicidal activity, phytotoxicity rating AMBEL ([17]; 250 g ai/ha): 100
Pre-emerge herbicidal activity, phytotoxicity rating SORHA ([18]; 63 g ai/ha): 0
Pre-emerge herbicidal activity, phytotoxicity rating SORHA ([18]; 250 g ai/ha): 0
Pre-emerge herbicidal activity, phytotoxicity rating ABUTH ([19]; 63 g ai/ha): 80
Pre-emerge herbicidal activity, phytotoxicity rating ABUTH ([19]; 250 g ai/ha): 100
Pre-emerge herbicidal activity, phytotoxicity rating CASOB ([20]; 63 g ai/ha): 0
Pre-emerge herbicidal activity, phytotoxicity rating CASOB ([20]; 250 g ai/ha): 0
Pre-emerge herbicidal activity, phytotoxicity rating CHEAL ([21]; 63 g ai/ha): 0
Pre-emerge herbicidal activity, phytotoxicity rating CHEAL ([21]; 250 g ai/ha): 90
Pre-emerge herbicidal activity, phytotoxicity rating SETVI ([22]; 63 g ai/ha): 0
Pre-emerge herbicidal activity, phytotoxicity rating SETVI ([22]; 250 g ai/ha): 0
Pre-emerge herbicidal activity, phytotoxicity rating AMARE ([23]; 63 g ai/ha): 60
Pre-emerge herbicidal activity, phytotoxicity rating AMARE ([23]; 250 g ai/ha): 95
